From ChEMBL document CHEMBL1201862, “PubChem BioAssay data set” (2004) come the findings set out here.

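Grown in 96-well plates, cells were treated for 48 hours with each compound at five concentrations. Insufficient inhibition: endpoint recorded as highest concentration tested. GI50 = concentration required for 50% inhibition of growth.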 The source made the active and inactive calls. No stated cut-off is given here; in the data, active = GI50 up to about 1.1 µM and inactive = higher.

Some test systems named below: SK-MEL-2; CAKI-1; COLO 205; HCT-15; A498; SK-MEL-28; OVCAR-4; SK-OV-3; HL-60; SF-295; UACC-62; ACHN; SF-268; OVCAR-8; IGROV-1; RXF 393.
Common to all, as to test: NCI anticancer screen, dose series, 48 h

For `C=CCN(C)CN(C)c1nc(N(C)C)nc(N(C)C)n1`, the GI50 with SK-MEL-2 is > 100 µM (inactive); with CAKI-1, > 100 µM (inactive); with COLO 205, 86.3 µM (inactive); in the assay with HCT-15, 34.3 µM; in the assay on A498, > 100 µM (inactive); with SK-MEL-28, > 100 µM (inactive). Moreover, the GI50 was 79.8 µM (inactive) in the assay on OVCAR-4; > 100 µM (inactive) with SK-OV-3; 21.1 µM (inactive) in the assay on HL-60; > 100 µM (inactive) in the assay on SF-295; > 100 µM (inactive) in the assay with UACC-62; > 100 µM (inactive) in the assay on ACHN. Besides, the GI50 with SF-268, in the assay with OVCAR-8 and with IGROV-1 was > 100 µM (inactive) in each case.

Take `CN1NC(c2ccccc2)=C(C#N)C(=O)CC1c1ccccc1Cl` (stereo unspecified): the GI50 in the assay with SK-MEL-2 is > 100 µM (inactive); in the assay with CAKI-1 it was > 100 µM (inactive); in the assay with COLO 205, > 100 µM (inactive); in the assay with HCT-15, 63.4 µM; in the assay on RXF 393 it was > 100 µM (inactive); in the assay with SK-MEL-28, > 100 µM (inactive). Besides, the GI50 with OVCAR-4, in the assay with SK-OV-3, in the assay with HL-60, with SF-295, in the assay on ACHN and with SF-268 was > 100 µM (inactive) throughout.

Regarding `COC(=O)CC(=O)OC1C[C@@H]2CCC3C(C)(C)CCC[C@]3(C)C23CC[C@@]1(C)C3` (stereo partly specified), the GI50 with CAKI-1 is 16.9 µM (inactive); with COLO 205, 18.6 µM (inactive); in the assay with HCT-15 it was 19.9 µM; in the assay on RXF 393, 18.9 µM (inactive); with SK-MEL-28, 19.8 µM (inactive); in the assay with OVCAR-4 it was 16.9 µM (inactive). Also, the GI50 with SK-OV-3 is 24.5 µM (inactive); with HL-60, > 100 µM (inactive); in the assay with SF-295 it was 19.2 µM (inactive); with UACC-62 it was 16.3 µM (inactive); with ACHN it was 17.5 µM (inactive); with SF-268 it was 18.5 µM (inactive). The figures for the GI50 with OVCAR-8 and in the assay with IGROV-1 were 19.5 µM (inactive) and 16.9 µM (inactive), respectively.

In the case of `O=Cc1ccc2c(c1I)OCO2`, the GI50 was > 100 µM (inactive) in the assay with SK-MEL-2; > 100 µM (inactive) in the assay on CAKI-1; > 100 µM (inactive) with COLO 205; greater than 100 µM in the assay with HCT-15; > 100 µM (inactive) in the assay with A498; > 100 µM (inactive) in the assay with OVCAR-4. Also, the GI50 in the assay with SK-OV-3, in the assay with HL-60, in the assay on SF-295, with UACC-62, with ACHN and in the assay with OVCAR-8 was > 100 µM (inactive) in each case. Also, in the assay with IGROV-1, the GI50 was > 100 µM (inactive).

Consider `COC(=O)CCC(=O)N1Cc2cc(C)ccc2N(C(=O)CCC(=O)OC)Cc2cc(C)ccc21`, for which the GI50 in the assay with SK-MEL-2 is > 100 µM (inactive); in the assay on CAKI-1, > 100 µM (inactive); in the assay on COLO 205, > 100 µM (inactive); in the assay with HCT-15, greater than 100 µM; in the assay with RXF 393, > 100 µM (inactive); in the assay on SK-MEL-28, > 100 µM (inactive). The GI50 with OVCAR-4, in the assay on SK-OV-3, in the assay on HL-60, in the assay on SF-295, in the assay on UACC-62 and in the assay on ACHN was > 100 µM (inactive) each time. For the same compound, the GI50 in the assay on SF-268, in the assay with OVCAR-8 and in the assay on IGROV-1 was > 100 µM (inactive) each time.

As to `CS(=O)(=O)OCCCOS(C)(=O)=O`, the GI50 was > 100 µM (inactive) with SK-MEL-2; > 100 µM (inactive) in the assay on COLO 205; greater than 100 µM in the assay with HCT-15; > 100 µM (inactive) with A498; > 100 µM (inactive) in the assay on RXF 393; > 100 µM (inactive) in the assay on SK-MEL-28. For the same compound, the GI50 in the assay on OVCAR-4, in the assay with SK-OV-3, in the assay on HL-60, in the assay with SF-295, in the assay on UACC-62 and in the assay on ACHN was > 100 µM (inactive) in each case. Also, the GI50 in the assay on SF-268, in the assay with OVCAR-8 and in the assay with IGROV-1 was > 100 µM (inactive) in each case.

With `CCOC(=O)Cn1c(=O)[nH]c(=O)c2[nH]cnc21`, the GI50 in the assay with SK-MEL-2 was > 100 µM (inactive); with COLO 205, > 100 µM (inactive); in the assay on HCT-15, greater than 100 µM; with A498 it was > 100 µM (inactive); in the assay with RXF 393 it was > 100 µM (inactive); with SK-MEL-28, > 100 µM (inactive). In addition, the GI50 in the assay on OVCAR-4, with SK-OV-3, in the assay on HL-60, with UACC-62, in the assay on ACHN and in the assay on SF-268 was > 100 µM (inactive) in each case. Moreover, the GI50 in the assay with OVCAR-8 and in the assay on IGROV-1 was > 100 µM (inactive) each time.

Turning to `Fc1cccc(C2SCc3nc4ccccc4n32)c1` (stereo unspecified), the GI50 in the assay on SK-MEL-2 was 42.3 µM (inactive); in the assay with CAKI-1, 25.7 µM (inactive); in the assay on COLO 205, 71.4 µM (inactive); in the assay with RXF 393 it was > 10 µM (inactive); in the assay with SK-MEL-28 it was > 10 µM (inactive); in the assay on SK-OV-3, 50.8 µM (inactive). The GI50 is 11 µM (inactive) in the assay on HL-60; 48.3 µM (inactive) in the assay on SF-295; 40.1 µM (inactive) with UACC-62; 24.4 µM (inactive) in the assay with ACHN; 75.3 µM (inactive) with SF-268; 66.5 µM (inactive) with OVCAR-8. The GI50 in the assay on IGROV-1 is 39.6 µM (inactive).

With `Cc1ccc2sc3cc(=O)cc(C)c-3nc2c1`, the GI50 with SK-MEL-2 is > 100 µM (inactive); with CAKI-1 it was 28.5 µM (inactive); in the assay with COLO 205, 61.9 µM (inactive); in the assay with HCT-15, 40.2 µM; with SK-MEL-28 it was > 100 µM (inactive); in the assay with OVCAR-4, 14.2 µM (inactive). Besides, the GI50 in the assay with SK-OV-3 is > 100 µM (inactive); in the assay with HL-60, 13.8 µM (inactive); with SF-295 it was 33.1 µM (inactive); with UACC-62, 14.3 µM (inactive); in the assay with ACHN, 29.2 µM (inactive); with SF-268, 47.2 µM (inactive). Also, the results for the GI50 in the assay with OVCAR-8 and with IGROV-1 were 37.9 µM (inactive) and > 100 µM (inactive), respectively.

Regarding `c1ccc(P(=C2c3ccccc3-c3ccccc32)(c2ccccc2)c2ccccc2)cc1`, the GI50 was 5.35 µM (inactive) in the assay with SK-MEL-2; 6.41 µM (inactive) with CAKI-1; 3.42 µM (inactive) in the assay on COLO 205; 5.02 µM in the assay on HCT-15; 13 µM (inactive) in the assay on RXF 393; 6.5 µM (inactive) in the assay with SK-MEL-28. Moreover, the GI50 with OVCAR-4 is 6.1 µM (inactive); with SK-OV-3, 20.7 µM (inactive); in the assay with HL-60, 1.8 µM (inactive); in the assay with SF-295 it was 2.94 µM (inactive); in the assay with UACC-62 it was 3.46 µM (inactive); in the assay with ACHN, 2.66 µM (inactive). Further, the GI50 with SF-268 was 7.19 µM (inactive); in the assay with OVCAR-8 it was 3.04 µM (inactive); in the assay with IGROV-1, 6.7 µM (inactive).

For the compound `Nc1c(-c2cn(Cc3ccccc3)c3ccccc23)[n+]([O-])c2ccccc2[n+]1[O-]`, the GI50 in the assay with SK-MEL-2 is 23.1 µM (inactive); in the assay on CAKI-1, 16 µM (inactive); in the assay on COLO 205, 35.3 µM (inactive); in the assay with HCT-15, 27.2 µM; in the assay on A498, 18.4 µM (inactive); in the assay on SK-MEL-28, 25.4 µM (inactive). The GI50 was 43.6 µM (inactive) in the assay with OVCAR-4; 24.8 µM (inactive) with SK-OV-3; 9.46 µM (inactive) in the assay on HL-60; 21.9 µM (inactive) in the assay with SF-295; 23.6 µM (inactive) in the assay with UACC-62; 15.5 µM (inactive) in the assay with ACHN. Also, the GI50 with SF-268 was 21.5 µM (inactive); in the assay on OVCAR-8, 45.4 µM (inactive); in the assay on IGROV-1, 21.7 µM (inactive).

As to `Cc1c(NC(=O)C(C)(C)Br)c(=O)oc2c(C)c3occc(=O)c3cc12`, the GI50 with SK-MEL-2 is 59.6 µM (inactive); in the assay on COLO 205, > 100 µM (inactive); in the assay on HCT-15 it was 96.6 µM; in the assay with A498 it was 18.1 µM (inactive); with RXF 393, 55.3 µM (inactive); in the assay with SK-MEL-28 it was > 100 µM (inactive). Moreover, the GI50 was 49.8 µM (inactive) in the assay on OVCAR-4; > 100 µM (inactive) in the assay on HL-60; 22.9 µM (inactive) in the assay on SF-295; 67.5 µM (inactive) in the assay on UACC-62; 45.8 µM (inactive) in the assay with ACHN; 64.9 µM (inactive) in the assay on SF-268. For the same compound, the GI50 is 55 µM (inactive) in the assay with OVCAR-8 and 57 µM (inactive) with IGROV-1.

As for `O=c1[nH]c(=O)n(C2OC(CO)C(N(O)Cc3ccc(F)cc3)C2O)cc1Br` (stereo unspecified), the GI50 with COLO 205, with A498, in the assay on RXF 393, with SK-MEL-28, in the assay with OVCAR-4 and in the assay on SK-OV-3 was > 100 µM (inactive) in each case. For the same compound, the GI50 in the assay on HL-60, in the assay with SF-295, in the assay with UACC-62, in the assay with ACHN, in the assay with SF-268 and in the assay on OVCAR-8 was > 100 µM (inactive) each time. Further, in the assay with IGROV-1, the GI50 was > 100 µM (inactive).

Take `O=[N+]([O-])c1ccc(-c2noc(-c3ccc(Cl)cc3)c2C2=NCCN2)cc1`: the GI50 with SK-MEL-2 was > 100 µM (inactive); in the assay on CAKI-1, > 100 µM (inactive); with COLO 205, > 100 µM (inactive); in the assay with HCT-15, greater than 100 µM; in the assay with RXF 393, > 100 µM (inactive); in the assay with SK-MEL-28, > 100 µM (inactive). Besides, the GI50 in the assay with OVCAR-4, in the assay on HL-60, in the assay on SF-295, with UACC-62, in the assay with ACHN and with SF-268 was > 100 µM (inactive) each time. In addition, the GI50 in the assay on OVCAR-8 and in the assay with IGROV-1 was > 100 µM (inactive) in each case.
